Structures are written as SMILES. Bounds are passed on as bounds.

The target in the assay is T1, TcBDF2 / TcBD2 (TcBDF2HA) (Trypanosoma cruzi, UniProt A0A2V2V5V1).
T1 sequence (A0A2V2V5V1 2-119): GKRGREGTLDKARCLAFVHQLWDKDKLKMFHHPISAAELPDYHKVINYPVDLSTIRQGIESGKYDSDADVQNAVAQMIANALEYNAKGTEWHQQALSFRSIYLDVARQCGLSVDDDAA
Put plainly: intrinsic tryptophan fluorescence quenching. In kind it is binding.
In turn, `COc1cc(OC)c2c(=O)[nH]c(-c3cc(C)c(OCCO)c(C)c3)nc2c1` [RVX-208] gave a Kd of over 150 µM.
In turn, `COc1cc2c(cc1-c1c(C)noc1C)ncc1[nH]c(=O)n([C@H](C)c3ccccn3)c12` [iBET-151] displayed a Kd of about 14 µM.
`CCOC(=O)Nc1cc(-c2ccc(C)c(NS(C)(=O)=O)c2)nn2c(C)nnc12` [Bromosporine] gave a Kd of about 14 µM.

(Values after publication doi:10.1101/2022.01.25.477728v2 (biorxiv, 2022).)
